Measured values reported in PubChem BioAssay AID1963965 (Molecular Pharmacology Branch, DTP, NCI, 2024).

System: 996289-038-R-J1-PDC spheroid viability
Test: Anticancer human tumor 996289-038-R-J1-PDC patient-derived colon adenocarcinoma cell line growth inhibition [PI3K]
Settings: spheroids with HUVEC and MSC; for IC50: curve of first compound; for viability, T/C: stronger effect = lower value
Summary of the method: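 Multi-cell spheroids combine tumor cells with HUVEC and human MSCs, treated with targeted agents alone or with inavolisib, alpelisib, duvelisib or copanlisib. Concentrations fall in half-log steps from at or near clinical Cmax, or from 10 microM where Cmax is unknown; viability read-out.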

[1] = second compound 0.00316 µM, first compound 0.0316 µM
[2] = second compound 0.00316 µM, first compound 0.1 µM
[3] = second compound 0.01 µM, first compound 0.0316 µM
[4] = second compound 0.01 µM, first compound 0.1 µM
[5] = second compound 0.0316 µM, first compound 0.0316 µM
[6] = second compound 0.0316 µM, first compound 0.1 µM
[7] = second compound 0.1 µM, first compound 0.0316 µM
[8] = second compound 0.1 µM, first compound 0.1 µM
[9] = second compound 0.316 µM, first compound 0.0316 µM
[10] = second compound 0.316 µM, first compound 0.1 µM
[11] = second compound 1 µM, first compound 0.0316 µM
[12] = second compound 1 µM, first compound 0.1 µM
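Also: spheroids exposed to compounds for seven days before viability read.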
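For viability, T/C in this document: luminescence used as a proxy for viable cell amount; percent viability relative to DMSO vehicle control as 100%.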

CC(C)n1nc(-c2ccc3oc(N)nc3c2)c2c(N)ncnc21 + CC(Nc1ccc2c(c1)OCCn1cc(N3C(=O)OCC3C(F)F)nc1-2)C(N)=O
IC50 (second compound 0.00316 µM): 0.0512 µM | IC50 (second compound 0.01 µM): 0.0461 µM | IC50 (second compound 0.0316 µM): 0.0314 µM | IC50 (second compound 0.1 µM): 0.0234 µM | IC50 (second compound 0.316 µM): 0.00843 µM | IC50 (second compound 1 µM): 0.0055 µM | viability, T/C (second compound 0.00316 µM, first compound 0.000316 µM): 95.9% | viability, T/C (second compound 0.00316 µM, first compound 0.001 µM): 82.8% | viability, T/C (second compound 0.00316 µM, first compound 0.00316 µM): 90.5% | viability, T/C (second compound 0.00316 µM, first compound 0.01 µM): 81.1% | viability, T/C [1]: 64.5% | viability, T/C [2]: 29.7% | viability, T/C (second compound 0.01 µM, first compound 0.000316 µM): 94.8% | viability, T/C (second compound 0.01 µM, first compound 0.001 µM): 93.2% | viability, T/C (second compound 0.01 µM, first compound 0.00316 µM): 84.6% | viability, T/C (second compound 0.01 µM, first compound 0.01 µM): 75.9% | viability, T/C [3]: 62.4% | viability, T/C [4]: 28.5% | viability, T/C (second compound 0.0316 µM, first compound 0.000316 µM): 100% | viability, T/C (second compound 0.0316 µM, first compound 0.001 µM): 95.6% | viability, T/C (second compound 0.0316 µM, first compound 0.00316 µM): 79.1% | viability, T/C (second compound 0.0316 µM, first compound 0.01 µM): 63.2% | viability, T/C [5]: 54.7% | viability, T/C [6]: 29.1% | viability, T/C (second compound 0.1 µM, first compound 0.000316 µM): 85% | viability, T/C (second compound 0.1 µM, first compound 0.001 µM): 75.3% | viability, T/C (second compound 0.1 µM, first compound 0.00316 µM): 67.8% | viability, T/C (second compound 0.1 µM, first compound 0.01 µM): 62% | viability, T/C [7]: 48.5% | viability, T/C [8]: 23.4% | viability, T/C (second compound 0.316 µM, first compound 0.000316 µM): 64% | viability, T/C (second compound 0.316 µM, first compound 0.001 µM): 67.8% | viability, T/C (second compound 0.316 µM, first compound 0.00316 µM): 57.2% | viability, T/C (second compound 0.316 µM, first compound 0.01 µM): 43.9% | viability, T/C [9]: 39.8% | viability, T/C [10]: 17.1% | viability, T/C (second compound 1 µM, first compound 0.000316 µM): 52.3% | viability, T/C (second compound 1 µM, first compound 0.001 µM): 60.9% | viability, T/C (second compound 1 µM, first compound 0.00316 µM): 57.2% | viability, T/C (second compound 1 µM, first compound 0.01 µM): 41.6% | viability, T/C [11]: 33.7% | viability, T/C [12]: 16%

CC1(C)CCC(CN2CCN(c3ccc(C(=O)NS(=O)(=O)c4ccc(NCC5CCOCC5)c([N+](=O)[O-])c4)c(Oc4cnc5[nH]ccc5c4)c3)CC2)=C(c2ccc(Cl)cc2)C1 + CC(Nc1ccc2c(c1)OCCn1cc(N3C(=O)OCC3C(F)F)nc1-2)C(N)=O
IC50 (second compound 0.00316 µM): 8.46 µM | IC50 (second compound 0.01 µM): 8.25 µM | IC50 (second compound 0.0316 µM): 6.53 µM | IC50 (second compound 0.1 µM): 6.52 µM | IC50 (second compound 0.316 µM): 4.81 µM | IC50 (second compound 1 µM): 4.21 µM | viability, T/C [1]: 83.7% | viability, T/C [2]: 77.4% | viability, T/C (second compound 0.00316 µM, first compound 0.316 µM): 95.8% | viability, T/C (second compound 0.00316 µM, first compound 1 µM): 112% | viability, T/C (second compound 0.00316 µM, first compound 3.16 µM): 93.5% | viability, T/C (second compound 0.00316 µM, first compound 10 µM): 42.7% | viability, T/C [3]: 92.3% | viability, T/C [4]: 86.7% | viability, T/C (second compound 0.01 µM, first compound 0.316 µM): 87.4% | viability, T/C (second compound 0.01 µM, first compound 1 µM): 111% | viability, T/C (second compound 0.01 µM, first compound 3.16 µM): 94.5% | viability, T/C (second compound 0.01 µM, first compound 10 µM): 41% | viability, T/C [5]: 95.2% | viability, T/C [6]: 88.2% | viability, T/C (second compound 0.0316 µM, first compound 0.316 µM): 94.7% | viability, T/C (second compound 0.0316 µM, first compound 1 µM): 84.2% | viability, T/C (second compound 0.0316 µM, first compound 3.16 µM): 90% | viability, T/C (second compound 0.0316 µM, first compound 10 µM): 26.5% | viability, T/C [7]: 80.3% | viability, T/C [8]: 81.4% | viability, T/C (second compound 0.1 µM, first compound 0.316 µM): 79.1% | viability, T/C (second compound 0.1 µM, first compound 1 µM): 96.7% | viability, T/C (second compound 0.1 µM, first compound 3.16 µM): 86.3% | viability, T/C (second compound 0.1 µM, first compound 10 µM): 29.4% | viability, T/C [9]: 70.3% | viability, T/C [10]: 62.3% | viability, T/C (second compound 0.316 µM, first compound 0.316 µM): 61.7% | viability, T/C (second compound 0.316 µM, first compound 1 µM): 61.2% | viability, T/C (second compound 0.316 µM, first compound 3.16 µM): 74.6% | viability, T/C (second compound 0.316 µM, first compound 10 µM): 22% | viability, T/C [11]: 55.5% | viability, T/C [12]: 50.7% | viability, T/C (second compound 1 µM, first compound 0.316 µM): 59.3% | viability, T/C (second compound 1 µM, first compound 1 µM): 59.8% | viability, T/C (second compound 1 µM, first compound 3.16 µM): 73.3% | viability, T/C (second compound 1 µM, first compound 10 µM): 25.9%
